Reference: PMC2667100 (Molecular and cellular endocrinology, 2008)
Residue numbers refer to the chain shown, from its start. Read-outs that look alike come from different tables or passages of the source.

Assays:
purified human 3β-HSD1 [1] = target: T1, purified human 3β-HSD1 (Homo sapiens, UniProt P14060); assay: Substrate and cofactor kinetics of the isomerase activity; type: biochemical; details: 27°C, pH 7.4
[2] = target: T2, purified human P195R-2 mutant of 3β-HSD2 (Homo sapiens, UniProt P26439, P195R); assay: as above; type: biochemical; details: 27°C, pH 7.4
T2 sequence (P26439 1-372 P195R): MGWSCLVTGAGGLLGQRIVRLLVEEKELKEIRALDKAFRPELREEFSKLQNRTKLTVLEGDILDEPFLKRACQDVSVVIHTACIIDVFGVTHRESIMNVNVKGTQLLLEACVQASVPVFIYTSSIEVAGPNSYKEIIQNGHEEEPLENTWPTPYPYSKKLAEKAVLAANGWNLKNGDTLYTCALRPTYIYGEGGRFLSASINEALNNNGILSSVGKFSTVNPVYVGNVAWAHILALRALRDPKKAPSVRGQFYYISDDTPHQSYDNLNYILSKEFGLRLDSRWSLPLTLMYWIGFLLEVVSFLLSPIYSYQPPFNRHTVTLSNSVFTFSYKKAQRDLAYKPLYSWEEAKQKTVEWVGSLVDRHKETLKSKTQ

purified human 3β-HSD2 [3] = target: T3, purified human 3β-HSD2 (Homo sapiens, UniProt P26439); assay: as above; type: biochemical; details: 27°C, pH 7.4
T3 sequence (P26439 1-372): T2 sequence (P26439 1-372 P195R) with R195P

purified human 3β-HSD2 [4] = target: T3, purified human 3β-HSD2; assay: Inhibition kinetics of purified enzyme; type: biochemical; details: for mode of inhibition: Dixon analysis
[5] = target: T2, purified human P195R-2 mutant of 3β-HSD2; assay: Inhibition kinetics of purified enzyme; type: biochemical
purified human 3β-HSD1 [6] = target: T1, purified human 3β-HSD1; assay: Inhibition kinetics of purified enzyme; type: biochemical
[7] = system: MCF-7 Tet-off 3β-HSD1 aromatase cells; assay: Inhibition of DHEA-stimulated proliferation; type: cell-based, human; details: for fold higher affinity, 3β-HSD1 cells relative to 3β-HSD2 cells (IC50): ratio of proliferation IC50 values
MCF-7 cells = assay: Proliferation of MCF-7 cells in the absence of DHEA substrate; type: cell-based, human
[8] = system: MCF-7 Tet-off 3β-HSD1 aromatase cells; assay: Stimulation of proliferation; type: cell-based, human; details: for stimulation of cell growth: no dox; for EC50: Homo sapiens, MCF7, 240 h, read-out: EC50, stimulation of growth
[9] = system: MCF-7 Tet-off 3β-HSD2 aromatase cells; assay: Stimulation of proliferation; type: cell-based, human; details: for stimulation of cell growth: no dox; for EC50: Homo sapiens, MCF7, 240 h, read-out: EC50, stimulation of growth
[10] = system: MCF-7 Tet-off 3β-HSD1 and 3β-HSD2 aromatase cells; assay: DHEA stimulation of proliferation, mean over both recombinant cell lines; type: cell-based; details: Homo sapiens, MCF7, read-out: mean EC50, stimulation of proliferation
purified human 3β-HSD1 [11] = target: T1, purified human 3β-HSD1; assay: Substrate and cofactor kinetics of the 3β-HSD activity; type: biochemical; details: 27°C, pH 7.4
[12] = target: T2, purified human P195R-2 mutant of 3β-HSD2; assay: as above; type: biochemical
purified human 3β-HSD2 [13] = target: T3, purified human 3β-HSD2; assay: as above; type: biochemical; details: 27°C, pH 7.4
[14] = system: MCF-7 Tet-off 3β-HSD2 aromatase cells; assay: Inhibition of DHEA-stimulated proliferation; type: cell-based, human; details: DHEA 5 nM, concentration-dependent
[15] = 5-androstene-3,17-dione 20–100 μM, NADH 0.05 mM
[16] = DHEA 8.0 or 20.0 μM, NAD+ 0.2 mM, 27 °C, pH 7.4
[17] = NADH 0–50 μM, 5-androstene-3,17-dione 100 μM
[18] = read-out: Km, isomerase cofactor (allosteric activator), NADH 0–50 μM, 5-androstene-3,17-dione 100 μM
[19] = read-out: Km, 3β-HSD cofactor, NAD+ 10–200 μM, DHEA 100 μM

T1 sequence (P14060 whole entry): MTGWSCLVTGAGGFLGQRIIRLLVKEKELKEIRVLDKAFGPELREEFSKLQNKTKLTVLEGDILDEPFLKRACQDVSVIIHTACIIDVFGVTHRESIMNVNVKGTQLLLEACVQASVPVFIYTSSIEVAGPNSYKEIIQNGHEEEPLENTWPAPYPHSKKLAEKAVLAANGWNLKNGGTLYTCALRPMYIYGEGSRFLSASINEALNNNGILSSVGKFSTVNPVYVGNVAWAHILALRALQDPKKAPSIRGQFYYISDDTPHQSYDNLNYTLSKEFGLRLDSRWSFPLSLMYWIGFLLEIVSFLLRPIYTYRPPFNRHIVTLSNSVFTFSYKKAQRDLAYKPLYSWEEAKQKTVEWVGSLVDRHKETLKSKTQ

## C[C@]12CCC(=O)CC1=CC[C@@H]1[C@@H]2CC[C@]2(C)C(=O)CC[C@@H]12 [5-androstene-3,17-dione]
Purified human 3β-HSD1 [1]; [15]
  kcat, isomerase substrate: 0.837 ± 0.0333 s⁻¹
[2]; [15]
  kcat, isomerase substrate: 2.18 ± 0.163 s⁻¹
[2]; read-out: Km, isomerase substrate, 5-androstene-3,17-dione 20–100 μM, NADH 0.05 mM
  Km: 119 ± 5 µM
Purified human 3β-HSD2 [3]; [15]
  kcat, isomerase substrate: 1.36 ± 0.1 s⁻¹

## CC(=O)OC1CCC2C3CCC45OC4C(O)=C(C#N)CC5(C)C3CCC12C (stereo not drawn) [17β-acetoxy-trilostane]
Purified human 3β-HSD2 [4]; [16]
  Ki: 1590 ± 100 nM
Purified human 3β-HSD2 [4]
  mode of inhibition: non-competitive
[5]; [16]
  Ki: 390 ± 30 nM
Purified human 3β-HSD1 [6]; DHEA 4.0 or 8.0 μM, NAD+ 0.2 mM, 27 °C, pH 7.4
  Ki: 430 ± 30 nM

## C[C@]1(O)CC[C@H]2[C@@H]3CC[C@@]45O[C@]4(C)C(O)=C(C#N)C[C@]5(C)[C@H]3CC[C@@]21C [epostane]
[7]
  fold higher affinity, 3β-HSD1 cells relative to 3β-HSD2 cells (IC50): 12 fold
MCF-7 cells
  ER-agonist activity (stimulation of proliferation): none of these compounds has ER-agonist activity

## C[C@]12CC[C@H](OS(=O)(=O)O)CC1=CC[C@@H]1[C@@H]2CC[C@]2(C)C(=O)CC[C@@H]12 [DHEA-S, dehydroepiandrosterone-sulfate]
[8]
  stimulation of cell growth: stimulated
[9]
  stimulation of cell growth: stimulated

## C[C@]12CC[C@@H]3c4ccc(O)cc4CC[C@H]3[C@@H]1CC[C@@H]2O [estradiol]
[8]
  EC50: 0.24 nM
[9]
  EC50: 0.32 nM

## N#Cc1ccc(C(c2ccc(C#N)cc2)n2cncn2)cc1 [letrozole]
MCF-7 cells
  ER-agonist activity (stimulation of proliferation): none of these compounds has ER-agonist activity

## C[C@]12CC[C@H]3[C@@H](CC[C@@]45O[C@@H]4C(O)=C(C#N)C[C@]35C)[C@@H]1CC[C@@H]2O [trilostane, 2α-cyano-4α,5α-epoxy-17β-ol-androstane-3-one]
Purified human 3β-HSD2 [4]
  Ki: 1600 ± 100 nM
  mode of inhibition: noncompetitively
[5]
  Ki: 190 ± 20 nM
[7]
  fold higher affinity, 3β-HSD1 cells relative to 3β-HSD2 cells (IC50): 16 fold
Purified human 3β-HSD1 [6]
  Ki: 100 ± 10 nM
Purified human 3β-HSD1 [6]; purified enzymes
  fold higher affinity for 3β-HSD1 than 3β-HSD2 (Ki): 16 fold
MCF-7 cells
  ER-agonist activity (stimulation of proliferation): none of these compounds has ER-agonist activity

## C[C@]12CC[C@@H]3c4ccc(O)cc4CC[C@H]3[C@@H]1CCC2=O [estrone]
[8]
  EC50: 0.39 nM
[9]
  EC50: 0.34 nM

## C[C@]12CC[C@H](O)CC1=CC[C@@H]1[C@@H]2CC[C@]2(C)C(=O)CC[C@@H]12 [DHEA, Dehydroepiandrosterone]
[10]
  EC50: 5 nM
Purified human 3β-HSD1 [11]; DHEA 2–100 μM, NAD+ 0.2 mM
  kcat, 3β-HSD substrate: 0.055 ± 0.0033 s⁻¹
[12]; DHEA 2–100 μM, NAD+ 0.2 mM, 27°C, pH 7.4
  kcat, 3β-HSD substrate: 0.158 ± 0.012 s⁻¹
[12]; ratio of Km values
  fold higher affinity for substrate, P195R-2 vs wild-type 3β-HSD2 (Km): 3.6 fold
[12]; read-out: Km, 3β-HSD substrate, DHEA 2–100 μM, NAD+ 0.2 mM, 27°C, pH 7.4
  Km: 13.3 ± 2.5 µM
[8]
  stimulation of cell growth: stimulated
Purified human 3β-HSD2 [13]; DHEA 2–100 μM, NAD+ 0.2 mM
  kcat, 3β-HSD substrate: 0.115 ± 0.0083 s⁻¹
[9]
  stimulation of cell growth: stimulated

## 4-hydroxy-tamoxifen
[7]; DHEA 5 nM, concentration-dependent
  effect on DHEA-stimulated proliferation: decreases the DHEA-stimulated proliferation
[14]
  effect on DHEA-stimulated proliferation: decreases the DHEA-stimulated proliferation

## NC(=O)C1=CN([C@@H]2O[C@H](COP(=O)(O)OP(=O)(O)OC[C@H]3O[C@@H](n4cnc5c(N)ncnc54)[C@H](O)[C@@H]3O)[C@@H](O)[C@H]2O)C=CC1 [NADH]
Purified human 3β-HSD1 [1]; [17]
  kcat, isomerase cofactor (allosteric activator): 0.75 ± 0.03 s⁻¹
Purified human 3β-HSD1 [1]; [18]
  Km: 4.6 ± 0.2 µM
[2]; [17]
  kcat, isomerase cofactor (allosteric activator): 1.49 ± 0.0967 s⁻¹
[2]; [18]
  Km: 10 ± 0.2 µM
Purified human 3β-HSD2 [3]; [17]
  kcat, isomerase cofactor (allosteric activator): 1.65 ± 0.107 s⁻¹
Purified human 3β-HSD2 [3]; [18]
  Km: 12.6 ± 0.9 µM

## C[C@]12CCC(=O)C=C1CC[C@@H]1[C@@H]2CC[C@]2(C)C(=O)CC[C@@H]12 [Androstenedione, androstenedione]
[8]
  stimulation of cell growth: stimulates the proliferation
[9]
  stimulation of cell growth: stimulates the proliferation

## NC(=O)c1ccc[n+]([C@@H]2O[C@H](COP(=O)([O-])OP(=O)(O)OC[C@H]3O[C@@H](n4cnc5c(N)ncnc54)[C@H](O)[C@@H]3O)[C@@H](O)[C@H]2O)c1 [NAD^+]
Purified human 3β-HSD1 [11]; NAD+ 10–200 μM, DHEA 100 μM
  kcat, 3β-HSD cofactor: 0.0583 ± 0.0033 s⁻¹
Purified human 3β-HSD1 [11]; [19]
  Km: 34.1 ± 1.7 µM
[12]; NAD+ 10–200 μM, DHEA 100 μM, 27°C, pH 7.4
  kcat, 3β-HSD cofactor: 0.153 ± 0.005 s⁻¹
[12]; read-out: Km, 3β-HSD cofactor, NAD+ 10–200 μM, DHEA 100 μM, 27°C, pH 7.4
  Km: 56.4 ± 3.2 µM
Purified human 3β-HSD2 [13]; NAD+ 10–200 μM, DHEA 100 μM
  kcat, 3β-HSD cofactor: 0.118 ± 0.01 s⁻¹
Purified human 3β-HSD2 [13]; [19]
  Km: 86.3 ± 5.6 µM
